Assay results published in patent US9914750B2, “Synthetic peptides and peptide mimetics” (University of Louisville Research Foundation, priority 2007, dated 2018).
Entries after “also recorded” stand apart in the source; their conditions may differ. No end group written: not given here.

B1: PSP: human Parotid Secretory Protein (SPLUNC2, C20ORF70), SEQ ID NO:6 (protein, listed as Homo sapiens)
chain: MLQLWKLVLLCGVLTGTSESLLDNLGNDLSNVVDKLEPVLHEGLETVDNTLKGILEKLKVDLGVLQKSSAWQLAKQKAQEAEKLLNNVISKLLPTNTDIFGLKISNSLILDVKAEPIDDGKGLNLSFPVTANVTVAGPIIGQIINLKASLDLLTAVTIETDPQTHQPVAVLGECASDPTSISLSLLDKHSQIINKFVNSVINTLKSTVSSLLQKEICPLIRIFIHSLDVNVIQQVVDNPQHKTQLQTLI

Key:
P. aeruginosa = experiment: Antibacterial activity in vivo, Romaine lettuce infection model; set-up: species or system Pseudomonas aeruginosa; conditions: 200 μg/ml peptide injected with bacteria, scored after 2-3 days
Procedure: FIG. 4: Antibacterial activity in vivo. Romaine lettuce leaves were injected with P. aeruginosa (10^8 cells/nil) in the presence or absence of 200 μg/ml of antibacterial peptides. After 2-3 days incubation the injection sites were scored for infection on a scale of 0-100% relative to the no-bacteria (0% infection) and bacteria-only controls (PAO1) (100%). Data are from six independent experiments and are shown as mean±SEM, N=4−12. *) P<0.04, **) P<0.003.
Romaine lettuce heads were purchased from local grocery stores. Outer leaves were removed and undamaged leaves were selected. The leaves were rinsed in 0.1% bleach and incubated in plastic containers on filter paper moistened with 10 mM MgSO4. Overnight cultures of P. aeruginosa were diluted to 10^8 CFU/ml in 10 mM MgSO4 and supplemented with 200 μg/ml of each peptide. Ten μl (10^6 CFU, 2 μg peptide) were injected into the midrib of each leaf using a micro pipetter. Blank controls were incubated with buffer only, and bacterial controls were incubated without peptide. The plastic trays were covered and incubated at 35° C. Leaves were inspected daily for browning around the injection site or along the midrib. Generally rotting or moldy leaves were discarded. Infection was scored on a scale from 0% to 100% relative to blank controls and bacterial controls, respectively.

P. aeruginosa PAO1 [1] = experiment: Biofilm formation / bacterial adhesion assay, PVC microtiter plates, crystal violet; format: cell-based, Pseudomonas aeruginosa; conditions: 50 μg/ml, 6 h
Procedure: FIGS. 7A and 7B: PSP-peptides inhibit biofilm formation. P. aeruginosa PAO1 (overnight cultures, diluted 1:100 were incubated with 50 μg/ml of each peptide (LL37, GK7, GL13, KL11) or lysozyme for 6 h under aerobic (FIG. 7A) or reduced oxygen (anaerobic) (FIG. 7B) conditions. The OD 570 (growth) was determined and the attached cells were then quantitated by staining with crystal violet (biofilm). Growth and biofilm values were normalized against the mean of samples without peptides (HOAc) and expressed as mean±SEM. The data in panel A are from three independent experiments, N=22−24. The data in panel B are from two independent experiments, N=16. Lysozyme (Lyz) data are from a single experiment, N=8. *) different from Growth, P<0.002
(§1) Overnight cultures of P. aeruginosa PAO1 were diluted 1:100 in MHB and 100 μl/well were incubated with 5 μl of LL-37, GK-7, GL-13, KL-11 or lysozyme (1 mg/ml) in PVC microtiter plates. The plates were incubated for 6 h at 32° C. under aerobic or reduced oxygen conditions. Bacterial growth was quantitated spectrophotometrically at 570 nm. Twenty-five μl of 1% crystal violet in dH2O was added to each well and incubated 20 min at room temperature. The wells were emptied and washed three times in dH2O and then incubated for 30 min with 200 μl of 95% ethanol. The OD at 570 nm was determined as a measure of biofilm formation. Growth and biofilm values were normalized against the mean of samples incubated with 0.01% acetic acid without peptides.
as §1, with “μl of the bacterial suspension was mixed” for “μl/well were incubated”, “50 μg/ml” for “5 μl”, “lysozyme” for “lysozyme (1 mg/ml)”

[2] = test system: Aggregatibacter (Actinobacillus) actinomycetemcomitans JP2; format: cell-based; conditions: 4 h, reduced oxygen
Procedure: The PSP peptides GL13, GK7 and KL11, lysozyme, LL37 or no peptide (BLK) were incubated with P. aeruginosa (FIG. 3A) or A. actinomycetemcomitans (FIG. 3B). P. aeruginosa PAO1 (10^5 cells/ml) were incubated for 2 h at 35° C. with 10 μg/ml (open bars) or 100 μg/ml (shaded bars) of each peptide. A. actinomycetemcomitans JP2 (10^5 cells/nil) were incubated for 4 h at 37° C. under reduced oxygen conditions. Bacterial cultures were diluted and plated on LB agar (Pseudomonas) or BHI agar plates (A.a., low oxygen incubation) and surviving CFUs enumerated. The data are shown as mean±SEM, P. aeruginosa: N=8−22 at 100 μg/ml, N=2−10 at 10 μg/ml. A. actinomycetemcomitans: N=3. *) P<0.0001, **) P<0.004, ***) P<0.02
Overnight cultures of bacteria were pelleted and resuspended in 10 mM sodium phosphate, pH 7.4 (10^5 CFU/ml). Diluted bacteria (100 μl) were incubated with 10 or 100 μg/ml of each peptide in 10 mM sodium phosphate, pH 7.4. P aeruginosa PAO1 were incubated for 2 h at 35° C. while A. actinomycetemcomitans JP2 were incubated for 4 h at 37° C. under reduced oxygen conditions. […]
As a second antibacterial assay, bactericidal activity was determined by incubating the peptides (10 or 100 μg/ml) with P. aeruginosa, A. actinomycetemcomitans or S. gordonii in 10 mM phosphate buffer. […]

[3] = test system: P. aeruginosa PAO1 on MDCK cell monolayers; experiment: Epithelial invasion assay, MDCK monolayer penetration; format: cell-based, Pseudomonas aeruginosa; conditions: 24 h
Procedure: FIG. 10. MDCK monolayer penetration: MDCK cells were cultured on filter supports and infected on the apical side with 10^6 CFU/ml of P. aeruginosa PAO1 (PAO1) or bacteria mixed with PSP peptides, as indicated. Control MDCK cells were incubated with buffer alone (HOAc). After 24 h incubation at 37° C., the OD 600 nm was determined for the media in the basolateral compartment to detect bacterial penetration of the MDCK cell monolayer.
To determine if PSP peptides prevent the penetration of epithelial cell monolayers, the epithelial cell line MDCK was cultured on permeable membrane filters. P. aeruginosa were added to the apical medium of confluent MDCK cell monolayers and bacterial penetration was determined as the number of bacteria recovered from the basolateral medium after a 24 h incubation.

sheep red blood cells = experiment: Hemagglutination assay; format: cell-based; conditions: PBS, absence of serum, 2 h
Procedure: FIG. 22: Hemagglutination of sheep red blood cells. RBCs were washed in PBS and incubated for 2 h in microtiter plates in PBS±5% fetal calf serum. Peptide concentrations were 83 μg/ml. The microtiter plate was imaged. Agglutinated red blood cells form a wide mat of cells, while non-agglutinated cells form a button shaped pellet.
Briefly, unmodified sheep erythrocytes (Cappel, M P Biomedicals, Irvine, Calif.) were washed in PBS and suspended at 1% in PBS. Diluted erythrocytes and 20 μg/ml of each peptide in PBS were mixed in polypropylene microtiter plates (120 μl per well) and incubated for 2 h at 35° C. The plates were imaged on a Kodak Image station.

P. aeruginosa PAO1 [4] = experiment: MIC determination, broth dilution assay (growth OD 570 nm, pelleting in wells); format: cell-based, Pseudomonas aeruginosa
Procedure: (§2) FIGS. 5A and 5B: PSP peptides lack bacteriostatic activity. P. aeruginosa PAO1 or A. actinomycetemcomitans JP2 (10^5 cells/ml) were incubated overnight with two-fold serial dilutions of the indicated peptides. The OD was determined at 570 nm. The data for P. aeruginosa (FIG. 5A) are representative of six independent experiments. The data for A. actinomycetemcomitans (FIG. 5B) are representative of three independent experiments. Filled squares, lysozyme; open diamonds, no peptide; open triangles, KL-11; filled triangles, GK-7; open squares, GL-13; filled diamonds, LL-37. […] Lysozyme inhibits growth about 50%. None of the PSP peptides inhibit growth.
FIG. 6A-6C: GL13 causes bacterial cell spreading. Microtiter plates used to determine bacteriostatic activity (FIG. 5) were photographed after overnight incubation with serial dilutions of the indicated peptides. The diameter of the P. aeruginosa pellets in the presence of GL13 was determined and expressed relative to the peptide concentration in each well. A. Graph of the results. B and C are representative depictions of P. aeruginosa and A. actinomycetemcomitans, respectively, spreading in the presence of PSP peptides.
The minimal inhibitory concentration (MIC) of PSP peptides was tested using the broth dilution assay. […] Bacterial growth was quantitated by the optical density (OD) at 570 nm. […]

[5] = test system: A. actinomycetemcomitans JP2; experiment: as above; format: cell-based, Aggregatibacter (Actinobacillus) actinomycetemcomitans
Procedure: as §2
The minimal inhibitory concentration (MIC) of PSP peptides was tested using the broth dilution assay. Briefly, overnight cultures of bacteria were diluted in Mueller-Hinton broth (MHB) (Difco) to 10^5 CFU/ml. Diluted bacteria (100 μl) and two-fold serial dilutions of peptides in 10 mM sodium phosphate, pH 7.4 (20 μl) were mixed in polypropylene microtiter plates and incubated for 24 h at 35° C. for P. aeruginosa or 48 h at 37° C. under reduced oxygen conditions for A. actinomycetemcomitans. Control samples were incubated with bacteria and two-fold serial dilutions of 20 μl 0.01% acetic acid in 10 mM sodium phosphate. Bacterial growth was quantitated by the optical density (OD) at 570 nm. […]

[6] = Affinity binding of PSP to LPS-Sepharose / immobilized LPS
Excerpt: PLUNC binds LPS, as expected from its structural similarity to LPS-Binding Protein (LBP). To determine if PSP also binds LPS, the protein was expressed in GH4C1 cells and the secretion medium was used for affinity chromatography on LPS-Sepharose. After binding, the affinity matrix was washed and then eluted with PBS+0.2 g/1 EDTA. […] The results of this experiment establish that PSP is an LPS-binding protein and provides a method for purification of PSP.
Secretion medium from GH4C1 cells was loaded on LPS-Sepharose and the unbound fraction collected (this sample was divided on two lanes for PSP-WT). The column was washed and then eluted with PBS+EDTA. The eluted beads were boiled in SDS-sample buffer to release any remaining proteins.

Row | Molecule | infection of lettuce leaves (P. aeruginosa) | bacterial growth in biofilm/adhesion assay (P. aeruginosa PAO1 [1]; aerobic) | inhibition of biofilm formation (adhesion) (P. aeruginosa PAO1 [1]; aerobic) | biofilm formation (P. aeruginosa PAO1 [1]; reduced oxygen conditions) | survival of A. actinomycetemcomitans [2] | penetration / invasion of MDCK cell monolayers by P. aeruginosa [3] | hemagglutination (words) (sheep red blood cells) | reduction of growth of P. aeruginosa (P. aeruginosa PAO1 [4]; broth dilution assay) | MIC (P. aeruginosa PAO1 [4]; two-fold serial dilutions starting at 84 μg/ml) | biofilm formation / adhesion (P. aeruginosa PAO1 [1]; aerobic) | growth inhibition of A. actinomycetemcomitans [5] | binding of PSP to LPS [6]
1 | KLLNNVISKLL [KL11, KLLNNVISKLL] | significantly reduced the infection; also recorded: significantly inhibit P. aeruginosa infection | only a small (non-significant) reduction of bacterial growth | 40% | reduced biofilm formation under low oxygen conditions | 40% | could inhibit the penetration | did not cause hemagglutination | – | – | – | – | –
2 | lysozyme: Lysozyme (egg white) from Fisher Scientific, established antimicrobial protein [reference compound] | significantly reduced the infection | affected neither growth nor biofilm formation; also recorded: affected neither growth nor adhesion | – | – | – | – | – | about 50% | did not exhibit a defined MIC | affected neither growth nor biofilm formation; also recorded: affected neither growth nor adhesion | did not inhibit growth of A. actinomycetemcomitans | –
3 | B1 | – | – | – | – | – | – | – | – | – | – | – | quantitatively retained by the LPS affinity matrix; also recorded: bound to immobilized P. aeruginosa LPS
